pIC50: −log10 of the molar value. Like-named read-outs stand apart in the source and are kept apart here.
Molecular target: T1, human BRD4 bromodomain II (Homo sapiens, UniProt O60885)
T1 construct: human BRD4 bromodomain II [based on Genbank NM_058243, residues 349-460]; host or cells: E. coli
Assay: Bromodomain binding assay (AlphaScreen), BRD4 BDII
Conditions: Table C2
Experimental: Bromodomain Binding Assay
The bromodomain binding assay utilizes AlphaScreen technology. Compounds compete with a biotinylated peptide ligand (from histone H4: aa 1-21, K5/K8/K12/K16Ac-biotin) for binding to a hexahistidine (His6)-tagged bromodomain. Peptide binding is detected by fluorescence signal after singlet oxygen energy transfer from peptide-bound AlphaScreen streptavidin-coated donor beads to His6-tagged bromodomain-bound nickel-chelate acceptor beads (PerkinElmer). Briefly, 8 μL 2.5× bromodomain (E. coli expressed, N-terminal His6-tagged human BRD4 bromodomain II [based on Genbank NM_058243, residues 349-460] or N-terminal His6-tagged human BRD4 bromodomain I [residues 44-170]) in reaction buffer (50 mM HEPES [pH 7.5], 100 mM NaCl, 0.05% CHAPS, 0.1% BSA, 1% DMSO) is added to wells of an assay plate (384-well low flange white, flat bottom, polystyrene microplate, Corning #3572; buffer only is added to some wells as a negative control). A compound concentration series (10 concentrations, 3-fold serial dilutions previously prepared in 100% DMSO, or 100% DMSO only negative control) is delivered to the assay plate with an Echo 550 acoustic liquid handler (Labcyte), followed by plate centrifugation and incubation for 30 minutes at room temperature. Then 4 μL 5× biotinylated peptide ligand is added, followed by plate centrifugation and gentle shaking for 30 minutes at room temperature to mix. After this incubation, 4 μL 5× donor beads are added, and the plate is centrifuged, followed by brief gentle shaking to mix. Finally, 4 μL 5× acceptor beads are added, and the plate is centrifuged, followed by gentle shaking for 60 minutes at room temperature in the dark. AlphaScreen signal (excitation/emission: 680 nm/520-620 nm) is detected with an EnSpire multimode plate reader (PerkinElmer). Percentage peptide binding is plotted as a function of concentration, and curve fitting is used to determine competitive compound binding ICsos.

[1] = AlphaScreen assay, read-out: BRD4 BDII IC50

pIC50 [1] | SMILES | pIC50 (BRD4 BDII IC50, AlphaScreen assay)
< 7.00 | CC(=O)Nc1ccc(-c2cccc(-c3cc(N4CCN(S(=O)(=O)c5ccccc5)CC4)no3)c2O)cc1 [Example 58, N-(2′-Hydroxy-3′-(3-(4-(phenylsulfonyl)piperazin-1-yl)isoxazol-5-yl)-[1,1′-biphenyl]-4-yl)acetamide] | 
< 7.00 | CC(=O)Nc1ccc(-c2cccc(-c3ccc(F)cc3)c2O)cc1F [Example 59, N-(3,4″-Difluoro-2′-hydroxy-[1,1′:3′,1″-terphenyl]-4-yl)acetamide] | 
< 7.00 | CC(=O)Nc1ccc(-c2cccc(-c3ccc(C)cc3)c2O)cc1F [Example 60, N-(3-Fluoro-2′-hydroxy-4″-methyl-[1,1′:3′,1″-terphenyl]-4-yl)acetamide] | 
< 7.00 | COc1ccc(-c2cccc(-c3ccc(NC(C)=O)c(F)c3)c2O)cc1 [Example 61, N-(3-Fluoro-2′-hydroxy-4″-methoxy-[1,1′:3′,1″-terphenyl]-4-yl)acetamide] | 
< 7.00 | O=C1CCOc2cc(-c3cccc(-c4cc(N5CCNCC5)no4)c3O)ccc2N1 [Example 62, 8-(2-Hydroxy-3-(3-(piperazin-1-yl)isoxazol-5-yl)phenyl)-2,3-dihydrobenzo[b][1,4]oxazepin-4(5H)-one] | 
7.00 to 8.00 | CC(=O)Nc1ccc(-c2cccc(-c3cccnc3)c2O)cc1F [Example 63, N-(3-Fluoro-2′-hydroxy-3′-(pyridin-3-yl)-[1,1′-biphenyl]-4-yl)acetamide] | 
7.00 to 8.00 | CC(=O)Nc1ccc(-c2cccc(-c3cc(N4CCNCC4)no3)c2O)cc1C#N [Example 64, N-(3-Cyano-2′-hydroxy-3′-(3-(piperazin-1-yl)isoxazol-5-yl)-[1,1′-biphenyl]-4-yl)acetamide 2,2,2-trifluoroacetate] | 
7.00 to 8.00 | CN1CCN(c2ccc(-c3cccc(-c4cc(N5CCNCC5)no4)c3O)cc2)C1=O [Example 65, 1-(2′-Hydroxy-3′-(3-(piperazin-1-yl)isoxazol-5-yl)-[1,1′-biphenyl]-4-yl)-3-methylimidazolidin-2-one 2,2,2-trifluoroacetate] | 
 | O=C(CF)Nc1ccc(-c2cccc(-c3cc(N4CCNCC4)no3)c2O)cc1 [Example 66, 2-Fluoro-N-(2′-hydroxy-3′-(3-(piperazin-1-yl)isoxazol-5-yl)-[1,1′-biphenyl]-4-yl)acetamide 2,2,2-trifluoroacetate] | < 7.00
< 7.00 | CC(=O)Nc1ccc(-c2cccc(-c3ccncc3)c2O)cc1F [Example 67, N-(3-Fluoro-2′-hydroxy-3′-(pyridin-4-yl)-[1,1′-biphenyl]-4-yl)acetamide] | 
7.00 to 8.00 | CC(=O)Nc1ccc(-c2cccc(-c3cc(N4CCNCC4)no3)c2O)cc1Oc1ccccc1 [Example 68, N-(2′-Hydroxy-3-phenoxy-3′-(3-(piperazin-1-yl)isoxazol-5-yl)-[1,1′-biphenyl]-4-yl)acetamide 2,2,2-trifluoroacetate] | 
< 7.00 | CCOC(=O)c1ccc(-c2cccc(-c3ccc(NC(C)=O)c(F)c3)c2O)cc1 [Example 69, Ethyl 4″-acetamido-3″-fluoro-2′-hydroxy-[1,1′:3′,1″-terphenyl]-4-carboxylate] | 
< 7.00 | CCOC(=O)c1cccc(-c2cccc(-c3ccc(NC(C)=O)c(F)c3)c2O)c1 [Example 70, Ethyl 4″-acetamido-3″-fluoro-2′-hydroxy-[1,1′:3′,1″-terphenyl]-3-carboxylate] | 
< 7.00 | CCOc1ccc(-c2cccc(-c3ccc(NC(C)=O)c(F)c3)c2O)cc1 [Example 71, N-(4″-ethoxy-3-fluoro-2′-hydroxy-[1,1′:3′,1″-terphenyl]-4-yl)acetamide] | 
< 7.00 | CCOc1cccc(-c2cccc(-c3ccc(NC(C)=O)c(F)c3)c2O)c1 [Example 72, N-(3″-Ethoxy-3-fluoro-2′-hydroxy-[1,1′:3′,1″-terphenyl]-4-yl)acetamide] | 
< 7.00 | CC(=O)Nc1ccc(-c2cccc(-c3ccc(NC(C)=O)c(OC4CCCC4)c3)c2O)cc1F [Example 73, N,N′-(3-(Cyclopentyloxy)-3″-fluoro-2′-hydroxy-[1,1′:3′,1″-terphenyl]-4,4″-diyl)diacetamide] | 
< 7.00 | CC(=O)Nc1ccc(-c2cccc(-c3ccc(C(C)C)cc3)c2O)cc1F [Example 74, N-(3-Fluoro-2′-hydroxy-4″-isopropyl-[1,1′:3′,1″-terphenyl]-4-yl)acetamide] | 
< 7.00 | CC(=O)Nc1ccc(-c2cccc(-c3cccc(C(C)C)c3)c2O)cc1F [Example 75, N-(3-Fluoro-2′-hydroxy-3″-isopropyl-[1,1′:3′,1″-terphenyl]-4-yl)acetamide] | 
< 7.00 | CC(=O)Nc1ccc(-c2cccc(-c3cc(N4CCNCC4)no3)c2O)cn1 [Example 76, N-(5-(2-Hydroxy-3-(3-(piperazin-1-yl)isoxazol-5-yl)phenyl)pyridin-2-yl)acetamide 2,2,2-trifluoroacetate] | 
< 7.00 | CC(=O)Nc1ccc(-c2cccc(-c3cccc(Cl)c3)c2O)cc1F [Example 77, N-(3″-Chloro-3-fluoro-2′-hydroxy-[1,1′:3′,1″-terphenyl]-4-yl)acetamide] | 
< 7.00 | CC(=O)Nc1ccc(-c2cccc(-c3cccc(C(F)(F)F)c3)c2O)cc1F [Example 78, N-(3-Fluoro-2′-hydroxy-3″-(trifluoromethyl)-[1,1′:3′,1″-terphenyl]-4-yl)acetamide] | 
< 7.00 | CCc1cccc(-c2cccc(-c3ccc(NC(C)=O)c(F)c3)c2O)c1 [Example 79, N-(3″-Ethyl-3-fluoro-2′-hydroxy-[1,1′:3′,1″-terphenyl]-4-yl)acetamide] | 
< 7.00 | CC(=O)Nc1ccc(-c2cccc(-c3ccc(Cl)cc3)c2O)cc1F [Example 81, N-(4″-Chloro-3-fluoro-2′-hydroxy-[1,1′:3′,1″-terphenyl]-4-yl)acetamide] | 
< 7.00 | CCc1ccc(-c2cccc(-c3ccc(NC(C)=O)c(F)c3)c2O)cc1 [Example 82, N-(4″-Ethyl-3-fluoro-2′-hydroxy-[1,1′:3′,1″-terphenyl]-4-yl)acetamide] | 
< 7.00 | CC(=O)Nc1ccc(-c2cccc(-c3ccc(C(F)(F)F)cc3)c2O)cc1F [Example 83, N-(3-Fluoro-2′-hydroxy-4″-(trifluoromethyl)-[1,1′:3′,1″-terphenyl]-4-yl)acetamide] | 
< 7.00 | CC(=O)Nc1ccc(-c2cc(F)cc(-c3cnn(C4CCN(C)CC4)c3)c2O)cc1F [Example 84, N-(3,5′-Difluoro-2′-hydroxy-3′-(1-(1-methylpiperidin-4-yl)-1H-pyrazol-4-yl)-[1,1′-biphenyl]-4-yl)acetamide] | 
< 7.00 | CC(=O)Nc1ccc(-c2cccc(-c3cnc(-c4ccccc4)o3)c2O)cc1F [Example 85, N-(3-Fluoro-2′-hydroxy-3′-(2-phenyloxazol-5-yl)-[1,1′-biphenyl]-4-yl)acetamide] | 
7.00 to 8.00 | CC(=O)Nc1c(F)cc(-c2cccc(-c3cc(N4CCNCC4)no3)c2O)cc1F [Example 86, N-(3,5-Difluoro-2′-hydroxy-3′-(3-(piperazin-1-yl)isoxazol-5-yl)-[1,1′-biphenyl]-4-yl)acetamide 2,2,2-trifluoroacetate] | 
< 7.00 | CC(=O)Nc1ccc(-c2cccc(-c3ccc(NC(C)=O)c(OC(C)C)c3)c2O)cc1F [Example 87, N,N′-(3-Fluoro-2′-hydroxy-3″-isopropoxy-[1,1′:3′,1″-terphenyl]-4,4″-diyl)diacetamide] | 
< 7.00 | CCc1cc(-c2cccc(-c3ccc(NC(C)=O)c(F)c3)c2O)ccc1NC(C)=O [Example 88, N,N′-(3-Ethyl-3″-fluoro-2′-hydroxy-[1,1′:3′,1″-terphenyl]-4,4″-diyl)diacetamide] | 

Source: patent US20250179059A1 (The Regents of the University of California, priority 2021, published 2025)
